# Results published in patent US20220331301A1, “CYSTIC FIBROSIS TRANSMEMBRANE CONDUCTANCE REGULATOR MODULATORS FOR TREATING AUTOSOMAL RESESSIVE POLYCYSTIC KIDNEY DISEASE” (The Johns Hopkins University, priority 2021, published 2022).
# Entries after “also recorded” stand apart in the source; their conditions may differ.
# What was measured:
# Pkhd1 kidney cells = assay: Fura-2 Ca2+ release in renal ARPKD cell line; type: cell-based, human; details: VX-809 (10 μM) for 16 hours
# Procedure: FIG. 16A, FIG. 16B, and FIG. 16C show Ca^2+ release in a renal ARPKD cell line treated with VX-809. Intracellular Ca^2+ (F340/F380) levels were measured by ratiometric Fura-2 AM analysis of WT and Pkhd1 kidney cells treated with VX-809 (10 μM) for 16 hours. […] Amplitude was measured as the […] base to peak Δf/f. Asterisk indicates significance between the two groups. Significance between the two groups was analyzed using Student's t-test, n=5-6. ****P<0.0001.
# The cells were loaded with the cell-permeant acetoxymethyl (AM) ester of the calcium indicator fura-2 (fura-2/AM) at 37° C. for 90 min. Measurements were made on a Zeiss inverted microscope equipped with a Sutter Lambda 10-2 controller and filter wheel assembly. A Zeiss FluorArc mercury lamp was used to excite the cells at 340 and 380 nm, and the emission response was measured at 510 nm. Cell fluorescence was measured in response to excitation for 1000 ms at 340 nm and 200 ms at 380 nm once every 4 s. Image acquisition, image analysis, and filter wheel control were performed with IPLab software (see Yanda et al., 2019b). […]
# [1] = test system: Pkhd1^del4/del4 cholangiocytes; assay: Fura-2 Ca2+ imaging, thapsigargin-induced ER Ca2+ release in cholangiocytes; type: cell-based, mice; details: VX-809 (10 μM) for 16 h; thapsigargin (4 μM)
# Procedure: FIG. 6A, FIG. 6B, and FIG. 6C show intracellular Ca2+ (F340/F380) levels obtained by ratiometric Fura-2 AM analysis of WT and Pkhd1^del4/del4 cholangiocytes, the latter treated with VX-809 (10 μM) for 16 h. (FIG. 6A) Representative traces of ER Ca2+ release in response to thapsigargin (4 μM) in WT and Pkhd1^del4/del4 cholangiocytes the latter treated with VX-809. Resting calcium levels (FIG. 6B and the average amplitude of Ca2+ release (FIG. 6C) in response to thapsigargin;
# The ER is one of the major repositories for Ca2+ in the cell. Burgoyne et al., 2015. Misregulation of Ca2+ signaling is a hallmark of ADPKD. Yanda et al., 2019b. To understand whether the ER Ca2+ movement is altered, we measured ER Ca2+ release; we treated the cells with thapsigargin, a specific inhibitor of the ER Ca2+-ATPase that, when applied, allows Ca2+ to leak out of the ER through independent Ca2+-permeable pathways. Jackson et al., 1988; Thastrup et al., 1990; Thastrup et al., 1989.
# The cells were loaded with the cell-permeant acetoxymethyl (AM) ester of the calcium indicator fura-2 (fura-2/AM) at 37° C. for 90 min. […] A Zeiss FluorArc mercury lamp was used to excite the cells at 340 and 380 nm, and the emission response was measured at 510 nm. Cell fluorescence was measured in response to excitation for 1000 ms at 340 nm and 200 ms at 380 nm once every 4 s. […]
# [2] = test system: renal cell models of ADPKD; details: shown previously, Yanda et al., 2018; cited from earlier work
substance,measurement,setting,value
lumacaftor [VX-809],resting Ca^2+,Pkhd1 kidney cells,not affected
same,thapsigargin-induced ER Ca^2+ release,Pkhd1 kidney cells; thapsigargin (4 μM),dramatically reduced; also recorded: significantly lowered
same,thapsigargin-induced ER Ca2+ release,[1],dramatically reduced
same,cysts in renal cell models of ADPKD,[2],can reduce cysts
